Key:
[1] = Toxicity in CDF1-SLC mouse injected with mouse P388 cells assessed as change in body weight at 6.25 mg/kg, ip treated for 5 days and measured on day 1 and 10 (reference value: 5.3g); assay type: organism-based; settings: in vivo, 120 h
[2] = Toxicity in CDF1-SLC mouse injected with mouse P388 cells assessed as change in body weight at 3.13 mg/kg, ip treated for 5 days and measured on day 1 and 10 (reference value: 5.3g); assay type: organism-based; settings: in vivo, 120 h
[3] = system: MDA-MB-231; assay: Cytotoxicity against human MDA-MB-231 cells assessed as reduction in growth after 4 days by HCS assay; assay type: functional; settings: MDA-MB-231, 96 h
[4] = Cytotoxicity against hamster VCRd5L cells assessed as reduction in growth after 4 days by HCS assay; assay type: functional; settings: Cricetulus griseus, 96 h
[5] = system: T98G; assay: Cytotoxicity against human T98G cells assessed as reduction in growth after 4 days by MTS assay; assay type: functional; settings: 96 h
[6] = system: P388; assay: Antitumor activity in CDF1-SLC mouse injected with mouse P388 cells assessed as mean survival time at 1.56 mg/kg, ip treated for 5 days (reference value: 11.2 +/- 0.84 days); assay type: functional
[7] = system: P388; assay: Antitumor activity in CDF1-SLC mouse injected with mouse P388 cells assessed as mean survival time at 0.78 mg/kg, ip treated for 5 days (reference value: 11.2 +/- 0.84 days); assay type: functional
[8] = system: HeLa; assay: Cytotoxicity against human HeLa cells assessed as reduction in growth; assay type: functional
[9] = Cytotoxicity against human H69/VDS cells assessed as reduction in growth after 7 days by MTT assay; assay type: functional; settings: 168 h
[10] = system: K562; assay: Cytotoxicity against human K562 cells assessed as reduction in growth after 4 days by MTT assay; assay type: functional; settings: K562, 96 h
[11] = system: DC3F; assay: Cytotoxicity against hamster DC-3F cells assessed as reduction in growth after 4 days by HCS assay; assay type: functional; settings: Cricetulus griseus, 96 h
[12] = system: A549; assay: Cytotoxicity against human A549 cells assessed as reduction in growth after 4 days by HCS assay; assay type: functional; settings: A549, 96 h
[13] = system: P388; assay: Antitumor activity in CDF1-SLC mouse injected with mouse P388 cells assessed as mean survival time at 3.13 mg/kg, ip treated for 5 days (reference value: 11.2 +/- 0.84 days); assay type: functional
[14] = system: MCF7; assay: Cytotoxicity against human MCF7 cells assessed as reduction in growth after 3 days by MTT assay; assay type: functional; settings: MCF7, 72 h
[15] = system: HL-60; assay: Cytotoxicity against human HL60 cells assessed as reduction in growth after 24 hrs by MTT assay; assay type: functional; settings: HL-60, 24 h
[16] = system: EL4; assay: Cytotoxicity against C57BL/6 mouse EL4 cells assessed as reduction in growth after 3 days; assay type: functional; settings: C57BL/6, EL4, 72 h
[17] = system: NCI-H69; assay: Cytotoxicity against human H69 cells assessed as reduction in growth after 7 days by MTT assay; assay type: functional; settings: NCI-H69, 168 h
[18] = Cytotoxicity against rat KNRK cells assessed as reduction in growth; assay type: functional
[19] = system: K562/Adr; assay: Cytotoxicity against human K562/ADR cells assessed as reduction in growth after 4 days by MTT assay; assay type: functional; settings: 96 h
[20] = system: P388; assay: Cytotoxicity against mouse P388 cells assessed as reduction in growth after 24 hrs by MTT assay; assay type: functional; settings: P388, 24 h
[21] = Cytotoxicity against human H69/Txl cells assessed as reduction in growth after 7 days by MTT assay; assay type: functional; settings: 168 h
[22] = Toxicity in CDF1-SLC mouse injected with mouse P388 cells assessed as change in body weight at 1.56 mg/kg, ip treated for 5 days and measured on day 1 and 10 (reference value: 5.3g); assay type: organism-based; settings: in vivo, 120 h
[23] = system: P388; assay: Antitumor activity in CDF1-SLC mouse injected with mouse P388 cells assessed as mean survival time at 6.25 mg/kg, ip treated for 5 days (reference value: 11.2 +/- 0.84 days); assay type: functional
[24] = system: Mus musculus; assay: Immunosuppressive activity in […] mouse injected with C57BL/6 mouse EL4 cells assessed as cytotoxic T cells generation by measuring specific lysis level at 5 mg/kg, ip treated for 2 to 15 days and measured on day 16 by gamma scintillation counter method (reference value: 18.6 +/- 4.15%); assay type: functional
[25] = Toxicity in CDF1-SLC mouse injected with mouse P388 cells assessed as change in body weight at 0.78 mg/kg, ip treated for 5 days and measured on day 1 and 10 (reference value: 5.3g); assay type: organism-based; settings: in vivo, 120 h

C/C=C/C[C@H](C)[C@@H](OC)[C@@H](C)[C@H](O)C[C@H]1OC(=O)C=C[C@H]1CC [PIRONETIN]
Activity [1]: -2.6 g | Activity [2]: -0.1 g | GI50 [3]: 4.6 nM | GI50 [4]: 31 nM | GI50 [5]: 7.5 nM | MST [6]: 11.7 days | MST [7]: 11.2 days | GI50 [8]: 30 nM | GI50 [9]: 20.3 nM | GI50 [10]: 17.3 nM | GI50 [11]: 9.5 nM | GI50 [12]: 7.5 nM | MST [13]: 13.3 days | GI50 [14]: 5 nM | GI50 [15]: 20 nM | GI50 [16]: 15 nM | GI50 [17]: 17.5 nM | GI50 [18]: 30 nM | GI50 [19]: 16 nM | GI50 [20]: 100 nM | GI50 [21]: 11.5 nM | Activity [22]: 0.5 g | MST [23]: 14.3 days | Activity [24]: 7.4% | Activity [25]: 3.7 g

From ChEMBL document CHEMBL4433230, “Revisiting microtubule targeting agents: α-Tubulin and the pironetin binding site as unexplored targets for cancer therapeutics” (Bioorg Med Chem Lett, 2019)
